Results on five compounds are retold here after US20250161290A1, “CO-CRYSTALS” (CereSpir Incorporated, priority 2021, published 2025).

Each structure is given as a SMILES string. ≈ marks a conversion by molar mass, not a printed value. Bounds are passed on as bounds.

Data set [1] is described as follows: Coformer solubility assessment in organic solvents (qualitative). The data set is classed as physicochemical. As to conditions: gentle heating 45° C. if required; for solubility: organic solvent or mixture, thermodynamic from solid. The method, then: Coformer solubility assessment was then performed. The following solvents were selected under these solvent classifications, which represent typical manufacturing solvents and have good solvent-solvent miscibility: • 1. Aprotic Polar: acetone, ethyl acetate, acetonitrile; • 2. Hydrogen Bond Donor: ethanol, methanol; and • 3. Electron Pair Donor: MTBE instead of diethyl ether.
Approximately 0.1 mmol of the coformer was weighed out into a 1-dram vial, enough solvent was added to achieve a 0.2 M concentration, and if required, gentle heating was applied at 45° C. for about 1 minute. […] After 65 hours, observations were made to determine if the coformers had remained in solution.

Data set [2] can be described thus: Coformer and CSP-1103 aqueous solubility assessment (qualitative). The data set is classed as physicochemical. The note with it: water, thermodynamic from solid, 0.05 M aqueous concentration, gentle heating at 45° C. for 1 minute. The method, then:
In a 1-dram vial, enough solvent was added to achieve a 0.05 M aqueous concentration along with some gentle heating at 45° C. for 1 minute to determine if the material would completely dissolve. After 24 hours, observations were made to determine if the material had remained in solution.

The nature of data set [3]: physchem.
Data set [4] in a line: Consolidated qualitative solubility results (Tables 6 and 8). The note with it: for qualitative solvent solubility overlaid with cocrystallization screens' results: Table 8, numbers are molar concentrations pending investigation; for consolidated solubility result: Table 6.
Data set [5] is described as follows: Dynamic Vapor Sorption (DVS) water sorption/desorption. The data set is classed as physicochemical. The procedure: (§1) Samples are analyzed using a TA Instruments Q5000SA gravimetric water sorption analyzer. The relative humidity (RH) is adjusted in 10% RH increments between 5-95% (±1% RH) at 25° C. (±0.5%° C.). The mass of a sample is continuously monitored and recorded with respect to RH and time with criteria for mass equilibrium set as a percent mass change <0.0100 for 5 minutes with a time limit of 720 minutes per step. The humidity is controlled by mixing dry and wet nitrogen streams with a total flow rate of 200 mL/min. The instrument control and data analysis are operated under Advantage for Q Series and Universal Analysis software, respectively.

A short description of data set [6]: XRPD of pre-exposed and post-exposed DVS samples (solid form stability). The data set is classed as physicochemical. The note with it: two DVS sorption/desorption cycles, 5-95% RH, 25° C. The procedure:
X-ray powder diffraction analyses are obtained using a BRUKER D8 ADVANCE equipped with a Cu radiation source operated at 40 kV and 40 mA (λ=1.54 Å after Ni filtering) configured in a Bragg-Brentano geometry, equipped with a 90-position AUTO-CHANGER and a silicon strip detector (SSD160-2). A coupled theta-two theta continuous PSD (Position Sensitive Device) fast scan from 4 to 40 degrees are collected over approximately 32 minutes (0.5 sec/0.01° step). A sample is placed onto a polished zero-background silicon wafer by gently distributing onto the flat surface and is analyzed as a flat plate specimen.
as §1

The mark [7] stands for this setting: ethyl acetate, organic solvent or mixture.
[8] abbreviates: MTBE, organic solvent or mixture.
Where [9] appears, read: acetonitrile, organic solvent or mixture.
Setting [10] is: ethanol, organic solvent or mixture.

As usually defined, the solubility is the concentration that dissolves in the medium under given conditions. Consider `COc1cc(C=O)ccc1O` [vanillin], for which the solubility in data set [1] (MTBE), in data set [1] (acetone), in data set [1] (acetonitrile), in data set [1] (ethanol), in data set [1] (ethyl acetate) and in data set [1] (methanol) was above 200 mM each time. In addition, the solubility was above 50 mM in data set [2] and 200 mM (≈ 30.4 mg/mL) in data set [3] (setting [7]). The “qualitative solvent solubility overlaid with cocrystallization screens' results” value (“qualitative solvent solubility overlaid” for short) in data set [4] (MTBE (BP 55° C.)), in data set [4] (acetone (BP 56° C.)), in data set [4] (acetonitrile (BP 82° C.)), in data set [4] (ethanol (BP 79° C.)), in data set [4] (methanol (BP 65° C.)) and in data set [4] (water (BP 100° C.)) was “✓” throughout. The consolidated solubility result in data set [4] (MTBE), in data set [4] (acetone), in data set [4] (acetonitrile), in data set [4] (ethanol), in data set [4] (ethyl acetate) and in data set [4] (methanol) was “✓” each time. The consolidated solubility result in data set [4] (water) is recorded as “✓”.
Turning to `NC(=O)c1cccnc1` [nicotinamide], the “Mass Change, Adsorption” value in data set [5] (DVS cycle 1 of 2, RH 5 to 95%) amounted to 1.11%; in data set [5] (DVS cycle 2 of 2, RH 5 to 95%), 1.18%. The “Mass Change, Desorption” value was −1.11% in data set [5] (DVS cycle 1 of 2, RH 95 to 5%) and −1.18% in data set [5] (DVS cycle 2 of 2, RH 95 to 5%). Also, the solubility in data set [1] (acetone) is above 200 mM; in data set [1] (acetonitrile), above 100 mM; in data set [1] (ethanol), above 200 mM; in data set [1] (ethyl acetate) it was above 50 mM; in data set [1] (methanol), above 200 mM; in data set [2] it was above 50 mM. Moreover, the solubility in data set [3] (setting [8]) is below 50 mM; in data set [3] (setting [7]), 50 mM (≈ 6.11 mg/mL). Further, in data set [6], the “solid form change after DVS exposure (XRPD pre- vs post-exposed)” value is “no solid state form changes”. Further, the consolidated solubility result in data set [4] (acetone), in data set [4] (acetonitrile), in data set [4] (ethanol), in data set [4] (ethyl acetate), in data set [4] (methanol) and in data set [4] (water) was “✓” in each case. Moreover, the “qualitative solvent solubility overlaid” value in data set [4] (acetonitrile (BP 82° C.)), in data set [4] (methanol (BP 65° C.)) and in data set [4] (water (BP 100° C.)) was “✓” throughout.
Consider `N[C@@H](Cc1ccccc1)C(=O)O` [phenylalanine], for which the solubility in data set [2] is above 50 mM; in data set [3] (setting [8]) it was below 50 mM; in data set [3] (acetone, organic solvent or mixture), below 50 mM; in data set [3] (setting [9]), below 50 mM; in data set [3] (setting [10]) it was below 50 mM; in data set [3] (setting [7]), below 50 mM. In data set [3] (methanol, organic solvent or mixture), the solubility is below 50 mM. Besides, in data set [4] (water (BP 100° C.)), the “qualitative solvent solubility overlaid” value was “✓”. For the same compound, in data set [4] (water), the consolidated solubility result was “✓”.
On to `O=C(O)/C=C/c1ccc(O)c(O)c1` [caffeic acid], for which the solubility in data set [1] (MTBE) was below 50 mM; in data set [1] (acetone) it was above 100 mM; in data set [1] (ethanol) it was above 200 mM; in data set [1] (methanol), above 200 mM; in data set [2] it was below 50 mM; in data set [3] (setting [8]) it was below 50 mM. Also, the solubility in data set [3] (setting [9]), in data set [3] (setting [7]) and in data set [3] (water) was below 50 mM in each case. Also, the “qualitative solvent solubility overlaid” value in data set [4] (acetone (BP 56° C.)), in data set [4] (ethanol (BP 79° C.)) and in data set [4] (methanol (BP 65° C.)) was “✓” each time. The consolidated solubility result in data set [4] (acetone), in data set [4] (ethanol) and in data set [4] (methanol) was “✓” in each case.
`O=C1NS(=O)(=O)c2ccccc21` [saccharin]: the “qualitative solubility at 0.05 M” value in data set [1] (MTBE) is “Y✓”. Besides, the solubility in data set [1] (acetone) was above 200 mM; in data set [1] (acetonitrile) it was above 200 mM; in data set [1] (ethanol) it was above 100 mM; in data set [1] (ethyl acetate) it was above 200 mM; in data set [1] (methanol), above 200 mM; in data set [2], below 50 mM. In addition, the solubility in data set [3] (setting [10]) was 100 mM (≈ 18.3 mg/mL); in data set [3] (setting [7]), 200 mM (≈ 36.6 mg/mL); in data set [3] (water), below 50 mM. Further, the “qualitative solvent solubility overlaid” value in data set [4] (MTBE (BP 55° C.)), in data set [4] (acetone (BP 56° C.)), in data set [4] (acetonitrile (BP 82° C.)) and in data set [4] (methanol (BP 65° C.)) was “✓” in each case. The consolidated solubility result in data set [4] (MTBE), in data set [4] (acetone), in data set [4] (acetonitrile), in data set [4] (ethanol), in data set [4] (ethyl acetate) and in data set [4] (methanol) was “✓” each time.
